Measured values taken from patent US20200297725A1, “ALLOSTERIC BCR-ABL PROTEOLYSIS TARGETING CHIMERIC COMPOUNDS” (YALE UNIVERSITY, priority 2019, published 2020).
Entries after “also recorded” stand apart in the source; their conditions may differ. Read-outs that look alike come from different tables or passages of the source.

Key:
BCR-ABL1 [1] = molecular target: T1, BCR-ABL1 (Homo sapiens, UniProt P00519); assay: BCR-ABL1 / c-ABL1 degradation in K562 cells by immunoblot; assay type: cell-based; parameters: K562 cell lines were purchased from ATCC; BCR N-terminal portion (fusion partner, human BCR P11274); host or cells: K562; the other entry of the earlier key: BCR (P11274, Breakpoint cluster region protein); details: for BCR-Abl and c-Abl levels on co-treatment with GMB-805 (Compound 19) / BCR-ABL1 and c-ABL1 levels on co-treatment with Compound 10 / DC50: K562 cells; for BCR-Abl and c-Abl levels on co-treatment with GMB-805 (Compound 19): 1 μM GMB-805, 8 hours; for BCR-ABL1 and c-ABL1 levels on co-treatment with Compound 10: 8 hour treatment, compared to Compound 10 alone
Protocol: The cells were collected at 300 g for 3 min. […] The total protein concentrations were determined by Pierce BCA Protein Assay and 30-50 μg of protein was loaded onto 10% Tris-Glycine gels. After standard gel electrophoresis, the separated proteins were transferred to nitrocellulose by wet transfer. The immunoblots were then processed by standard procedures and incubated with the respective antibodies. Band intensities were quantified by Bio-Rad's Image Lab software.
Gels were transferred and then blocked in TBS-Tween buffer with 5% BSA. […] Following incubation with appropriate HRP-conjugated secondary antibodies, membranes were imaged on a BioRad ChemiDoc using BioRad Clarity Western ECL substrate and Thermo Super Signal West Femto Maximum Sensitivity substrate.
(§1) Following centrifugation at 13,000×g for 15 minutes at 4° C. to pellet insoluble materials, the protein concentrations of the supernatants were quantitated by BCA assay (Thermo Fisher Scientific). Protein samples were resolved by SDS-PAGE, transferred to nitrocellulose, blocked with 5% non-fat milk and probed with the marked antibodies. Immunoblots were developed using enhanced chemiluminescence and visualized using a Bio-Rad Chemi-Doc MP Imaging System with Image Lab v.5.2.1 software (Bio-Rad Laboratories).
Target sequence in this assay (P00519 with tags, fused parts or gaps): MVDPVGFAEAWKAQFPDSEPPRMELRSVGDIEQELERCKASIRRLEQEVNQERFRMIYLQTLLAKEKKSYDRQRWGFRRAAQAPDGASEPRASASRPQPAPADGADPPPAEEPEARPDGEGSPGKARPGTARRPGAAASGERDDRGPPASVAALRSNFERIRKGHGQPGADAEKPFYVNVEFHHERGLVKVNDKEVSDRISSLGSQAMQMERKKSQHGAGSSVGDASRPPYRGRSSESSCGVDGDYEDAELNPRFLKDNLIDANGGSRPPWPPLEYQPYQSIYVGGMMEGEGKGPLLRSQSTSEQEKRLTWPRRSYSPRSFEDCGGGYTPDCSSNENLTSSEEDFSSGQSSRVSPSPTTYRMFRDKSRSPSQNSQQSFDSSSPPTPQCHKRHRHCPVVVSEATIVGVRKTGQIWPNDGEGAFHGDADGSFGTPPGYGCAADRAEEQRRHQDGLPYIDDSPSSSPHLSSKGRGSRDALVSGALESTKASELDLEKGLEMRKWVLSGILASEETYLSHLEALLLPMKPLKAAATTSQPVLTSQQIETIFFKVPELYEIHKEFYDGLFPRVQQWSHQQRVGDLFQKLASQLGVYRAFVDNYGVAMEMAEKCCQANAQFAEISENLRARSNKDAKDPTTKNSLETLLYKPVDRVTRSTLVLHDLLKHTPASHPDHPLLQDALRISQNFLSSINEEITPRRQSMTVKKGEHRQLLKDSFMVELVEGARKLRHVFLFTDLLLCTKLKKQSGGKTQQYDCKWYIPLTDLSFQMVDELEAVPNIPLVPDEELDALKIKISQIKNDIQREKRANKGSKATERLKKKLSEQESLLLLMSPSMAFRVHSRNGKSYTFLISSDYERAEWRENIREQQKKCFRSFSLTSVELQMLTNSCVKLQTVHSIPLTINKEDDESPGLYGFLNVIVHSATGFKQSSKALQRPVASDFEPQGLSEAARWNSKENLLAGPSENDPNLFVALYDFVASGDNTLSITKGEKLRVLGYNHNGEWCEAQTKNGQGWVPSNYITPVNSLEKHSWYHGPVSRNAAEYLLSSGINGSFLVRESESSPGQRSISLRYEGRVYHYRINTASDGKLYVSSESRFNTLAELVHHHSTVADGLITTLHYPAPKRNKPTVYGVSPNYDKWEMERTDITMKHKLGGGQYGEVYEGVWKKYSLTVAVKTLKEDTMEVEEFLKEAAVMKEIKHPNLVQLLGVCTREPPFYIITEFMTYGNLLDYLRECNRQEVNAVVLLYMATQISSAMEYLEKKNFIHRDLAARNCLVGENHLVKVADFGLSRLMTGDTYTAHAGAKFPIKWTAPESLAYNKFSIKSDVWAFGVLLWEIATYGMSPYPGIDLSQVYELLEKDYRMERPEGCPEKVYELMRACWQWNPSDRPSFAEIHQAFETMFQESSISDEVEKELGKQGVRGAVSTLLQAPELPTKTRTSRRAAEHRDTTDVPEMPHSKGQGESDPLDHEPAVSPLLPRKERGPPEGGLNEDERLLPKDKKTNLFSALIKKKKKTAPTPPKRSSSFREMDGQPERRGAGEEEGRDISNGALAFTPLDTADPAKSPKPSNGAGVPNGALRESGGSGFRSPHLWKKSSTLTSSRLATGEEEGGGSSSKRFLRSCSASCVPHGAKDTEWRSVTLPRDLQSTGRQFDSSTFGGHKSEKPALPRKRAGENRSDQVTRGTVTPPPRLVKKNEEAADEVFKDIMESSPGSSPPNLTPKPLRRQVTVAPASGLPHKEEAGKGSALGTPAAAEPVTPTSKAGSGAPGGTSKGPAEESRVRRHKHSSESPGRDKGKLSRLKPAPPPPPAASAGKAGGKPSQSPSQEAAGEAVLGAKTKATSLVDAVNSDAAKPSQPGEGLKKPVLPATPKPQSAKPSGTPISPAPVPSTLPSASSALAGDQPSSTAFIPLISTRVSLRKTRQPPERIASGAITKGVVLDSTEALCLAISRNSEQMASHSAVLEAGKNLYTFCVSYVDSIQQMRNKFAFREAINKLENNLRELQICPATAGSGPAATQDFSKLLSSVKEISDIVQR

[2] = Pharmacokinetics in mouse; assay type: in vivo; details: 10 mg/kg IP
Protocol: The pharmacokinetic properties were determined at Pharmaron, China. The exemplary compound was formulated (in 5% EtOH & 5% Solutol HS15 in D5W(ESD-2)) and administered by intraperitoneal (I.P.) injection at a dosing level of 10 mg/kg. Plasma samples were collected at 0.25 hours, 0.5 hours, 1 hour, 2 hours, 4 hours, 8 hours, and 24 hours following dosing.
Acetonitrile was added to precipitate protein and the samples were vortexed for 30 second, centrifuged (4000 rpm, 15 minutes), diluted with water and the compound concentration determined by LC/MS/MS according to a standard curve.

K562 cells [3] = assay: K562 xenograft model in athymic mice; assay type: in vivo; details: 200 mg/kg IP once every 24 hours, day 4-6
Protocol: K562 cells were implanted subcutaneously into the flank of athymic mice and tumors were allowed to develop to approx. 200 mm^3. Animals were then randomised into treatment or vehicle groups on day 1. On day 4-6, animals were either treated with exemplary compound GMB-805 (Compound 19; 200 mg/kg) or vehicle control by IP injection once every 24 hours.
All in vivo experiments were conducted in accordance with institutional guidelines and were approved by Yale Institutional Animal Care & Use Committee. Mice were housed in pathogen-free animal facilities and with access to food and water ad libitum. K562 cells in Matrigel (Corning Life Sciences) were injected subcutaneously into the flank of athymic mice (Charles River) and allowed to proliferate until tumors reached −200 mm^3 at which point mice were randomized into treatment groups and treated I.P. with vehicle or exemplary compound once a day at 200 mg/kg for 3 days. Tumors were measured via caliper and volumes calculated following equation:
where V=volume, L=Length and W=Width

K562 cells [4] = assay: K562 cell proliferation assay; assay type: cell-based; details: Homo sapiens
Protocol: (§2) Cell lines and patient samples were exposed to dose ranges of single or combination agents and incubated for 3 days at 37° C., 5% CO2 and subjected to a CellTiter 96 AQueous One solution cell proliferation assay (Promega). IC50 values calculated and analyzed using Prism 6 software (GraphPad).

[5] = tested on: healthy donor CD34+ cells; assay: Effect on healthy donor CD34+ cells; assay type: cell-based, human; details: proliferation and apoptosis
BCR-ABL1 [6] = molecular target: T1, BCR-ABL1; assay: Immunoblot of co-treatment with ponatinib in Ba/F3 BCR-ABL1 wild-type cells; assay type: cell-based, murine; parameters: BCR N-terminal portion (fusion partner, BCR P11274); expressed in transfected cells; the other entry of the earlier key: BCR (P11274, Breakpoint cluster region protein); details: overnight co-treatment with ponatinib
Text: (§3) Samples were lysed in 1× Cell Signaling lysis buffer (#9803S) supplemented with PMSF and complete mini tablets (Sigma #11836153001). Lysates were quantified and separated on 4-15% Tris-glycine polyacrylamide gels. Gels were transferred and then blocked in TBS-Tween buffer with 5% BSA. The following primary antibodies were used: tABL, BD #554148 anti-mouse 1:400; c-ABL1, SantaCruz #24-11 anti-mouse 1:1000; B-tubulin, Millipore #05-66-MI anti-mouse 1:5000; pSTAT5, # CS9351S anti-rabbit 1:1000 pSTAT5, # CS4322 anti-rabbit 1:1000; pBCR-Abl, # CS2865 anti-rabbit 1:1000; pCRKL, # CS491 anti-rabbit 1:1000; pAKT, # CS4060 anti-rabbit 1:1000; pERK, # CS4695 anti-rabbit 1:1000; pSHP-2, Abcam #62322 anti-rabbit 1:1000; pGAB1, # CS3233 anti-rabbit 1:1000; pGAB2, # CS3882 anti-rabbit 1:1000; pSHC, # CS2434 anti-rabbit 1:1000; VHL, # CS68547 anti-rabbit 1:1000; pCRKL, # CS3181S anti-rabbit 1:1000. Following incubation with appropriate HRP-conjugated secondary antibodies, membranes were imaged on a BioRad ChemiDoc using BioRad Clarity Western ECL substrate and Thermo Super Signal West Femto Maximum Sensitivity substrate.
Target sequence in this assay (P00519 28-1130 limits assumed): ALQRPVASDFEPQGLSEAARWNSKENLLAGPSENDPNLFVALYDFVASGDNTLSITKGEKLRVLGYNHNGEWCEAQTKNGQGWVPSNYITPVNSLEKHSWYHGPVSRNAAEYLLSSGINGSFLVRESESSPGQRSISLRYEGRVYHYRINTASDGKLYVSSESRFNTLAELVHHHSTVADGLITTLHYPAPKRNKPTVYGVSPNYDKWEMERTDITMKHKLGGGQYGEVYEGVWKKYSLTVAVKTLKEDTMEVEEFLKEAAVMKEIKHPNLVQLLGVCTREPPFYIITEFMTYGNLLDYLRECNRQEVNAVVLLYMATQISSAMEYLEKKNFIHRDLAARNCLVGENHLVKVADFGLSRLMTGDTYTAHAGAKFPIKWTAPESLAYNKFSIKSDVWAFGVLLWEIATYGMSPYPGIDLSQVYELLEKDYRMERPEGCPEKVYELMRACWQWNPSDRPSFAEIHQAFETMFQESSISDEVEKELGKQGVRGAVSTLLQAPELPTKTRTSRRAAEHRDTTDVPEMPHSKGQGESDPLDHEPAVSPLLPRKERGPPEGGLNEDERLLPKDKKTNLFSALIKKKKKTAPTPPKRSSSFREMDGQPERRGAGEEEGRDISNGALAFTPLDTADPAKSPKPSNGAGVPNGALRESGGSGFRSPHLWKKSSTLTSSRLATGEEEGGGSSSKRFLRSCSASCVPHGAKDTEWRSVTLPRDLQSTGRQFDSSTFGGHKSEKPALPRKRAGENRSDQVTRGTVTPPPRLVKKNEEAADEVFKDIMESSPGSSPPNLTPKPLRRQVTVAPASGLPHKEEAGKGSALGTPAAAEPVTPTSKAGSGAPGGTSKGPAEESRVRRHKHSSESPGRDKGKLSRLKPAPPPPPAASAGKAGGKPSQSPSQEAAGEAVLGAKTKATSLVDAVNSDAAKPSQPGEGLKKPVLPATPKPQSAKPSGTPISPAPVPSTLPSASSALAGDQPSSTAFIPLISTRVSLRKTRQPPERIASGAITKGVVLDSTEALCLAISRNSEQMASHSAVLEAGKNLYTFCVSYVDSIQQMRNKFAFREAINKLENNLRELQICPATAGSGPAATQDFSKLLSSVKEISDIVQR

[7] = tested on: Ba/F3 BCR-ABL1 T315I cells; assay: Cell proliferation of Ba/F3 cells expressing BCR-ABL1 T315I; assay type: cell-based, murine; details: versus wild-type BCR-ABL1
Protocol: as §2

[8] = tested on: BCR-ABL1 transformed Ba/F3 cells; assay: Cell proliferation of BCR-ABL1 transformed Ba/F3 cells (MTS); assay type: cell-based, murine
Protocol: as §2
Plates were incubated at 37° C. for 72 h and analyzed by standard MTS-based colorimetric assay. Non-linear regression curve-fit analysis and IC50 calculations were performed using Graphpad Prism software.

[9] = tested on: Ba/F3 BCR-ABL1 G250E cells; assay: Cell proliferation of Ba/F3 cells expressing BCR-ABL1 G250E; assay type: cell-based, murine; details: versus wild-type BCR-ABL1
Protocol: as §2

[10] = tested on: primary CML CD34+ patient cells; assay: Apoptosis (Annexin V) in primary CML patient cells; assay type: cell-based, human; details: patient 1; no appreciable difference between PROTAC and diastereomer control
Protocol: Mononuclear cells (MNCs) were isolated from either peripheral blood, bone marrow or leukapheresis samples by Ficoll gradient. MNCs were then treated with ammonium-chloride-potassium (ACK) lysis buffer to remove any residual red blood cells. […] For cell proliferation assays, samples were thawed and cultured in R10. For immunoblot assays, samples were thawed and cultured in IMDM with 40 μg/mL low-density lipoprotein (LDL, Stem Cell), 20% FBS, and 100 μM beta-mercaptaethanol (Sigma).
Sorted samples were recovered overnight in culture in IMDM with 40 μg/mL low-density lipoprotein (LDL, Stem Cell), 20% FBS, and 100 μM beta-mercaptaethanol (Sigma).

BCR-ABL1 [11] = molecular target: T1, BCR-ABL1; assay: BCR-ABL1 signaling and scaffolding in K562 cells (RPPA, immunoblot); assay type: cell-based; parameters: K562 cell lines were purchased from ATCC; BCR N-terminal portion (fusion partner, human BCR P11274); host or cells: K562; the other entry of the earlier key: BCR (P11274, Breakpoint cluster region protein)
Text: as §3
Target sequence in this assay (P00519 with tags, fused parts or gaps): as the sequence (P00519 with tags, fused parts or gaps) above
RPPA was performed in the MDACC CCSG core as described at http://www.mdanderson.org/education-and-research/resources-for-professionals/scientific-resources/core-facilities-and-services/functional-proteomics-rppa-core/index.html.
as §1, with “K562 cells were treated with the indicated concentrations of compound for 24 hours, washed with PBS and then harvested in lysis buffer (50 mM Tris (pH 7.4), 150 mM NaCl, 1 mM EDTA, 0.5% NP-40, phosphatase and protease inhibitors). Following” for “Following”

BCR-ABL1 [12] = molecular target: T1, BCR-ABL1; assay: BCR-ABL1 degradation in primary patient LSCs (CD34+CD38-) by immunoblot; assay type: cell-based; parameters: induce degradation of both BCR-ABL1 and ABL1 in primary patient LSCs; BCR N-terminal portion (fusion partner, human BCR P11274); endogenous in cells; host or cells: primary CML patient CD34+/CD38- cells (patient 1); the other entry of the earlier key: BCR (P11274, Breakpoint cluster region protein); details: CD34+/CD38- cells, patient 1, overnight
Protocol: MNCs isolated from specimens via ficoll, then selected for CD34+ by MACs column. Frozen viables were thawed and cultured in IMDM+40 ug/mL LDL+20% FBS+100 uM BME overnight. Sorted using FACS Aria III, stained with CD34 (BD348801) and CD38 (BD555461).
Cells were lysed in Cell Signaling lysis buffer supplemented with PMSF and Complete Mini protease inhibitor tablets. Protein concentration assessed via BCA assay, ran on 4-15% tris-glycine polyacrylamide gel at 180V for 1 h, transferred overnight at 25V, blocked with 5% BSA in TBST for 1 h and incubated at 4 degree in following primary antibodies.
Target sequence in this assay (P00519 28-1130 limits assumed): as the sequence (P00519 28-1130 limits assumed) above

[13] = tested on: primary CML CD34+ patient cells; assay: Proliferation of primary CML patient CD34+ cells; assay type: cell-based, human; details: CD34+ cells from newly diagnosed CML patients
Protocol: as §2

CC[C@H](C)[C@H](NC(=O)[C@H]([C@@H](C)CC)N(C)C(C)=O)C(=O)N[C@H](C(=O)N[C@@H](CC(C)C)C(=O)[C@@]1(C)CO1)[C@@H](C)O [epoxomicin, reference compound]
BCR-Abl and c-Abl levels on co-treatment with GMB-805 (Compound 19) (BCR-ABL1 [1]): restored protein concentration back to untreated levels | BCR-ABL1 and c-ABL1 levels on co-treatment with Compound 10 (BCR-ABL1 [1]): restored the levels of BCR-ABL1 and c-ABL1

Cc1ncsc1-c1ccc(CNC(=O)[C@@H]2C[C@@H](O)CN2C(=O)[C@@H](NC(=O)COCCNc2ncc(C(=O)Nc3ccc(OC(F)(F)Cl)cc3)cc2-c2ccn[nH]2)C(C)(C)C)cc1 [Compound 19]
DC50 (BCR-ABL1 [1]; extended dose response, 24 hours (FIG. 16A), read-out: DC50 (concentration at which half maximal degradation is observed)): 30 nM | Cmax [2]: well over above both the DC50 and IC50 | toxicity or weight loss (K562 cells [3]): no toxicity or weight loss was observed; also recorded: induced no weight loss | tumor volume (K562 cells [3]): no significant increase in tumor volume | IC50 (K562 cells [4]; K562 (FIG. 16B), read-out: antiproliferative activity IC50): 169 nM

Cc1ccc(NC(=O)c2ccc(CN3CCN(C)CC3)cc2)cc1Nc1nccc(-c2cccnc2)n1 [imatinib]
effect on healthy donor CD34+ cells [5]: had no effect on healthy donor CD34+ cells

NS(=O)(=O)OC[C@@H]1C[C@@H](n2ccc3c(N[C@H]4CCc5ccccc54)ncnc32)C[C@@H]1O [MLN-4924, reference compound]
BCR-Abl and c-Abl levels on co-treatment with GMB-805 (Compound 19) (BCR-ABL1 [1]): able to rescue protein levels | BCR-ABL1 and c-ABL1 levels on co-treatment with Compound 10 (BCR-ABL1 [1]): inhibited the degradation of BCR-ABL1 and ABL1

Cc1ncsc1-c1ccc(CNC(=O)[C@@H]2C[C@@H](O)CN2C(=O)[C@@H](NC(=O)COCCOc2ccc(-c3cc(Nc4ccc(OC(F)(F)F)cc4)ncn3)cc2)C(C)(C)C)cc1 [Compound 10]
effect of co-treatment with ponatinib (immunoblot) (BCR-ABL1 [6]): enhanced the ability of Compound 10 to induce degradation | effect of T315I mutation on potency [7]: had little effect on the potency of Compound 10 | IC50 ([8]; Mus musculus, BaF3, single agent, 72 h (FIG. 6A), read-out: IC50, dose response titration): 1110 nM | reduction of the IC50 of imatinib by co-treatment ([8]; co-treatment of imatinib with 2.5 μM Compound 10): ~3 fold | degradation of BCR-ABL1 and c-ABL1 (BCR-ABL1 [1]; K562 (FIG. 5A) and Ba/F3 (FIG. 5C) cells, dose- and time-dependent): induce the degradation of BCR-ABL1 and c-ABL1 | Dmax (BCR-ABL1 [1]; K562, read-out: Dmax (%) [cell line]): 95% | DC50 (BCR-ABL1 [1]; read-out: DC50): 340 nM | anti-proliferative activity against G250E mutant [9]: enhanced anti-proliferative activity | apoptosis in sorted progenitor (CD34+CD38+) and stem (CD34+CD38-) cells [10]: induced apoptosis in the progenitor cells and to a lesser extent in the stem cells | total ABL1 protein by RPPA (BCR-ABL1 [11]; K562, 5 μM, 8 h): showed a decrease in total ABL1 protein | phosphorylation of GAB2 and SHC (BCR-ABL1 [11]; K562, full serum (10% FBS)): able to reduce phosphorylation of GAB2 and SHC | kinase activity of BCR-ABL1 (pBCR-ABL1 Tyr412, pSTAT-5) (BCR-ABL1 [11]; K562, immunoblot, 8 h and 24 h): able to inhibit the kinase activity of BCR-ABL1 | phosphorylation of GAB2, SHC and STAT5 (BCR-ABL1 [11]; K562, serum-free): able to inhibit phosphorylation of GAB2 and SHC, as well as STAT5 | degradation of BCR-ABL1 and ABL1 (BCR-ABL1 [12]): able to induce degradation of both BCR-ABL1 and ABL1 | potency at inhibiting proliferation relative to Compound 14 [13]: greater than 2 fold | IC50 (K562 cells [4]; FIG. 5B/D: K562 and Ba/F3 BCR-ABL1 cells, read-out: cell proliferation IC50): ~1000 nM
